Data reported in ChEMBL document CHEMBL1152802, “Discovery of novel Trypanosoma cruzi glyceraldehyde-3-phosphate dehydrogenase inhibitors” (Bioorg Med Chem, 2009).
pIC50: −log10 of the molar value.

What was measured:
[1] = biological target: Glyceraldehyde-3-phosphate dehydrogenase, glycosomal (Trypanosoma cruzi, UniProt P22513); assay: (§1) Inhibition of Trypanosoma cruzi recombinant glycosomal GAPDH expressed in Escherichia coli by spectrophotometry
Trypanosoma cruzi [2] = assay: Antitrypanosomal activity against Trypanosoma cruzi amastigote forms; format: functional, organism-based
Trypanosoma cruzi [3] = assay: Antitrypanosomal activity against Trypanosoma cruzi amastigote forms at 841 uM; format: functional
Leishmania amazonensis = assay: Antileishmanial activity against Leishmania amazonensis amastigote forms at 841 uM; format: functional
Ehrlich = assay: Cytotoxicity against mouse Ehrlich carcinoma cells; format: functional, cell-based
[4] = biological target: Glyceraldehyde-3-phosphate dehydrogenase, glycosomal (Trypanosoma cruzi) (UniProt P22513); assay: as §1; settings: concentration not given here
Glyceraldehyde-3-phosphate dehydrogenase, glycosomal (Trypanosoma cruzi), sequence (P22513 whole entry): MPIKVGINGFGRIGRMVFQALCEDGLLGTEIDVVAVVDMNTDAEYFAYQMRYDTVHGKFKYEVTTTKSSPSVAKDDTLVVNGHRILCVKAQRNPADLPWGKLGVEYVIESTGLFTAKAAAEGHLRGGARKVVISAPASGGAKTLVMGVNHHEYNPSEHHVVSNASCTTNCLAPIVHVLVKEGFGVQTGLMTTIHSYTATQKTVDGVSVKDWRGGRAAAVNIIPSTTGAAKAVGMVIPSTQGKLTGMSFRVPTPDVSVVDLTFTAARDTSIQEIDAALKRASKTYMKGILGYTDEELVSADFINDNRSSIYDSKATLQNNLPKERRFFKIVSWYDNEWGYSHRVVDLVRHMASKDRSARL

Glyceraldehyde-3-phosphate dehydrogenase, glycosomal, sequence (P22513 whole entry): as above

CCCCCC/C=C/CCCCCCCc1cccc(O)c1C(=O)O
pIC50 [1]: 3.79

COc1cccc(C(=O)N[C@@H]2[C@H](O)[C@@H](COP(=O)(O)O)O[C@H]2n2cnc3c(NCc4cccc5ccccc45)ncnc32)c1
pIC50 [1]: 5.30

COc1cccc(C(=O)N[C@@H]2[C@H](O)[C@@H](CO)O[C@H]2n2cnc3c(NCc4cccc5ccccc45)ncnc32)c1
pIC50 [1]: 4.92

C=CC/C=C/C/C=C/CCCCCCCc1cccc(O)c1C(=O)O
pIC50 [1]: 4.42

CCC/C=C/C/C=C/CCCCCCCc1cccc(O)c1C(=O)O
pIC50 [1]: 4.16

COc1cc2oc(-c3cc(OC)c(OC)c(OC)c3)cc(=O)c2cc1OC
pIC50 [1]: 4.09

CC(=O)Oc1ccc(-c2cc3cc(OC(C)=O)c(OC(C)=O)cc3oc2=O)cc1OC(C)=O
pIC50 [1]: 4.75

COc1ccc(-c2coc3cc(O)c(OC)cc3c2=O)cc1 [CASTANIN]
pIC50 [1]: 4.08

C=CC(C)(C)c1cc2cc3c(cc2oc1=O)O[C@H](C(C)(C)O)C3 [CHALEPIN]
pIC50 [1]: 4.19

O=c1ccc2ccccc2o1 [COUMARIN]
pIC50 [1]: 3.16

O=c1c(O[C@@H]2OC[C@H](O)[C@H](O)[C@H]2O)c(-c2ccc(O)c(O)c2)oc2cc(O)cc(O)c12 [GUAJAVERIN]
pIC50 [1]: 3.85

O=c1c2cc(O)c(O)cc2oc2cc(O)c([C@@H]3O[C@H](CO)[C@@H](O)[C@H](O)[C@H]3O)c(O)c12 [MANGIFERIN]
pIC50 [1]: 3.83

O=c1c(O)c(-c2ccc(O)c(O)c2)oc2cc(O)cc(O)c12 [QUERCETIN]
pIC50 [1]: 3.85 | pIC50 (Trypanosoma cruzi [2]): 3.11

O=C(/C=C/c1ccc(O)cc1)OC[C@H]1O[C@@H](Oc2c(-c3ccc(O)cc3)oc3cc(O)cc(O)c3c2=O)[C@H](O)[C@@H](O)[C@@H]1O [TILIROSIDE]
pIC50 [1]: 4.34 | Activity (Trypanosoma cruzi [3]): 45% | Activity (Leishmania amazonensis): 67.8% | pIC50 (Ehrlich): 4.16

O=c1ccc2ccc(O)cc2o1 [UMBELLIFERONE]
pIC50 [1]: 3.21

C[C@H]1[C@H](C)CC[C@]2(C(=O)O)CC[C@]3(C)C(=CC[C@@H]4[C@@]5(C)CC[C@H](O)C(C)(C)[C@@H]5CC[C@]43C)[C@H]12 [URSOLIC ACID]
inhibition [4]: 25% | pIC50 (Trypanosoma cruzi [2]): 5.40
